{
  "source": "paper PMC5684143",
  "about": "“New melanocortin-like peptide of E. coli can suppress inflammation via the mammalian melanocortin-1 receptor (MC1R): possible endocrine-like function for microbes of the gut” (NPJ Biofilms and Microbiomes, 2017)",
  "key": {"[1]": {"tested_on": "human peripheral blood mononuclear cells (PBMC)", "assay": "HMGB1-induced TNF release by human PBMC-derived macrophages", "type": "cell-based", "conditions": "differentiated human macrophages; HMGB1 6 hours; ELISA; three independent experiments in duplicate", "protocol": "Human PBMC were isolated by density gradient through Ficoll-Paque^TM PLUS centrifugation (Amersham Pharmacia Biotech), and suspended in RPMI 1640 containing 10% (vol/vol) heat-inactivated human serum (BioWhittaker Inc.), penicillin 100 U/ml, and streptomycin 100 μg/ml, and incubated at 37 °C in a humidified incubator with 5% CO2 atmosphere overnight. Non-adherent cells were discarded. Adherent monocytes were washed twice with PBS and were then suspended in 12-well and 24-well tissue culture plates and incubated in the same medium but now enriched with 2.5 ng/ml macrophage colony-stimulating factor for 5–7 days.[33] […]\nConcentrations of TNF and IL-6 were each determined using a commercially available enzyme-linked immunosorbent assay (ELISA) kit (R&D System Inc.) as previously described.[34] The levels of TNF or IL-6 were calculated with reference to standard curves.\nHuman peripheral blood mononuclear cells (PBMC) were isolated by density gradient centrifugation through Ficoll-PaqueTM PLUS, and cultured for 5-7 days in medium containing macrophage colony-stimulating factor (2.5 ng/ml). […] The content of TNF in the cell-free medium was determined by ELISA and expressed as mean ± SEM of three independent experiments performed in duplicate. *p< 0.05, **p< 0.01 vs. control (=HMGB1 alone without added melanocortin peptide)."}, "Balb/C mice": {"tested_on": "Balb/C mice", "assay": "Lethal LPS endotoxin sepsis in mice, survival", "type": "in vivo", "conditions": "two experiments pooled; peptide i.p. twice daily for 3 days; saline 0 of 19; alpha-MSH 5 of 20, MECO-1 15 of 30", "text": "Kaplan–Meier analysis was used to determine statistical significance of the differences in survival of mice. p ≦ 0.05 was considered significant. Values in the figures were expressed as mean(±)S.E.M. of two or three independent experiments, where each experimental point was derived from duplicates or triplicates. Student’s two-tailed t-test was used to compare the means between groups. p-value of 0.05 or less was considered statistically significant. The design (including sample size) of experiments in Figs. 2–7, and Table 1 followed closely the design of previous experiments by us and others. The results of prior experiments in our laboratory (both in vitro experiments and animal experiments) were used to decide sample size for each of the experiments shown.[37]–[41]\nFig. 6 MECO-1 rescues mice from lethal sepsis. a Endotoxin. Balb/C mice (males) were injected once intraperitoneally with LPS at a dose estimated to be an LD75. Immediately thereafter, the first doses of MECO-1 at 0.5 mg/kg (low dose), MECO-1 at 5 mg/kg (high dose), alpha-MSH at 5 mg/kg (high dose) or saline alone were administered intraperitoneally. Peptide or saline were given twice daily for 3 days for a total of six doses. Ten mice were in each group. Survival was monitored daily for 2 weeks. […] Animals were monitored for survival for 14 days. […]"}},
  "data": [
    {"substance": "alpha-melanocyte-stimulating hormone [alpha-MSH]", "values": [
      {"measurement": "attenuation of HMGB-1-induced TNF release", "setting": "[1]", "value": "significant effects in the picomolar range"},
      {"measurement": "mice rescued from lethal dose of LPS endotoxin", "setting": "Balb/C mice", "value": 25, "unit": "%"}
    ]}
  ]
}
